± gives the expanded uncertainty stated by the source.
Assay: xn = mol fraction of the nth substance listed

FC(Cl)(Cl)Cl [trichlorofluoromethane] + FC(F)Cl
Settings	mass density [kg/m3]
424.96 K, 293.85 kPa, Fluid (supercritical or subcritical phases), Burnett expansion method, x1 = 0.832	11.0367 ± 0.22
424.96 K, 373.9 kPa, Fluid (supercritical or subcritical phases), Burnett expansion method, x1 = 0.832	14.1459 ± 0.28
424.96 K, 418.92 kPa, Fluid (supercritical or subcritical phases), Burnett expansion method, x1 = 0.832	15.9304 ± 0.32
424.96 K, 445.3 kPa, Gas, isochoric method, x1 = 0.832	131.354 ± 0.093
424.96 K, 567.37 kPa, Fluid (supercritical or subcritical phases), Burnett expansion method, x1 = 0.832	21.9341 ± 0.44
424.96 K, 662.1 kPa, Gas, isochoric method, x1 = 0.832	200.808 ± 0.14
424.96 K, 663.7 kPa, Gas, isochoric method, x1 = 0.832	200.808 ± 0.14
424.96 K, 715.19 kPa, Fluid (supercritical or subcritical phases), Burnett expansion method, x1 = 0.832	28.1109 ± 0.56
424.96 K, 797.38 kPa, Fluid (supercritical or subcritical phases), Burnett expansion method, x1 = 0.832	31.6606 ± 0.63
424.96 K, 967.2 kPa, Gas, isochoric method, x1 = 0.832	303.998 ± 0.094
424.96 K, 969 kPa, Gas, isochoric method, x1 = 0.832	303.998 ± 0.094
424.96 K, 1086 kPa, Fluid (supercritical or subcritical phases), Burnett expansion method, x1 = 0.832	44.6324 ± 0.9
424.96 K, 1298.4 kPa, Gas, isochoric method, x1 = 0.832	426.053 ± 0.33
424.96 K, 1299.4 kPa, Gas, isochoric method, x1 = 0.832	426.053 ± 0.33
424.96 K, 1617.2 kPa, Gas, isochoric method, x1 = 0.832	556.221 ± 0.17
424.96 K, 1619.2 kPa, Gas, isochoric method, x1 = 0.832	556.221 ± 0.17
424.96 K, 3854.3 kPa, Liquid, Pycnometric method, x1 = 0.8336	1012.94 ± 3.5
424.96 K, 4517.9 kPa, Liquid, Pycnometric method, x1 = 0.8336	1028.76 ± 3.4
424.96 K, 7331.5 kPa, Liquid, Pycnometric method, x1 = 0.8336	1077.17 ± 2.6
424.96 K, 20744 kPa, Liquid, Pycnometric method, x1 = 0.8336	1193.05 ± 1.9
424.96 K, 49662 kPa, Liquid, Pycnometric method, x1 = 0.8336	1310.9 ± 1.5
424.96 K, 65344 kPa, Liquid, Pycnometric method, x1 = 0.8336	1352.8 ± 1.5
424.97 K, 150.03 kPa, Fluid (supercritical or subcritical phases), Burnett expansion method, x1 = 0.832	5.5536 ± 0.11
424.97 K, 153.48 kPa, Fluid (supercritical or subcritical phases), Burnett expansion method, x1 = 0.832	5.6866 ± 0.11
424.97 K, 215.05 kPa, Fluid (supercritical or subcritical phases), Burnett expansion method, x1 = 0.832	8.0157 ± 0.16
424.97 K, 300.89 kPa, Fluid (supercritical or subcritical phases), Burnett expansion method, x1 = 0.832	11.3011 ± 0.23
424.97 K, 409.41 kPa, Fluid (supercritical or subcritical phases), Burnett expansion method, x1 = 0.832	15.5588 ± 0.31
424.97 K, 444.8 kPa, Gas, isochoric method, x1 = 0.832	131.354 ± 0.093
424.97 K, 518.76 kPa, Fluid (supercritical or subcritical phases), Burnett expansion method, x1 = 0.832	19.9414 ± 0.4
424.97 K, 580.12 kPa, Fluid (supercritical or subcritical phases), Burnett expansion method, x1 = 0.832	22.4579 ± 0.45
424.97 K, 977.19 kPa, Fluid (supercritical or subcritical phases), Burnett expansion method, x1 = 0.832	39.6298 ± 0.8
424.97 K, 1317.5 kPa, Fluid (supercritical or subcritical phases), Burnett expansion method, x1 = 0.832	55.8677 ± 1.1
424.97 K, 3592.7 kPa, Liquid, Pycnometric method, x1 = 0.8336	1005.84 ± 3.6
424.97 K, 4190.2 kPa, Liquid, Pycnometric method, x1 = 0.8336	1021.29 ± 3.4
424.97 K, 4853 kPa, Liquid, Pycnometric method, x1 = 0.8336	1035.91 ± 3
424.97 K, 5457.4 kPa, Liquid, Pycnometric method, x1 = 0.8336	1047.58 ± 3
424.97 K, 6169.4 kPa, Liquid, Pycnometric method, x1 = 0.8336	1059.78 ± 3
424.97 K, 14203 kPa, Liquid, Pycnometric method, x1 = 0.8336	1148.26 ± 2.2
424.97 K, 27900 kPa, Liquid, Pycnometric method, x1 = 0.8336	1230.65 ± 1.7
424.97 K, 35700 kPa, Liquid, Pycnometric method, x1 = 0.8336	1263.74 ± 1.6
424.97 K, 42738 kPa, Liquid, Pycnometric method, x1 = 0.8336	1289.02 ± 1.5
424.97 K, 56282 kPa, Liquid, Pycnometric method, x1 = 0.8336	1329.7 ± 1.5
424.97 K, 61980 kPa, Liquid, Pycnometric method, x1 = 0.8336	1344.58 ± 1.4
429.96 K, 2000.6 kPa, Gas, isochoric method, x1 = 0.832	715.595 ± 0.22
429.96 K, 2000.8 kPa, Gas, isochoric method, x1 = 0.832	715.595 ± 0.66
429.96 K, 2002.4 kPa, Gas, isochoric method, x1 = 0.832	715.595 ± 0.22
474.95 K, 4750 kPa, Fluid (supercritical or subcritical phases), Burnett expansion method, x1 = 0.832	271.514 ± 5.5
474.97 K, 1108 kPa, Fluid (supercritical or subcritical phases), Burnett expansion method, x1 = 0.832	39.0371 ± 0.78
474.98 K, 322.47 kPa, Fluid (supercritical or subcritical phases), Burnett expansion method, x1 = 0.832	10.7116 ± 0.21
474.98 K, 601.7 kPa, Fluid (supercritical or subcritical phases), Burnett expansion method, x1 = 0.832	20.4396 ± 0.41
474.98 K, 1965.5 kPa, Fluid (supercritical or subcritical phases), Burnett expansion method, x1 = 0.832	74.5021 ± 1.5
474.98 K, 1995.2 kPa, Fluid (supercritical or subcritical phases), Burnett expansion method, x1 = 0.832	75.9597 ± 1.5
474.98 K, 3255.8 kPa, Fluid (supercritical or subcritical phases), Burnett expansion method, x1 = 0.832	142.18 ± 2.9
474.98 K, 3296.6 kPa, Fluid (supercritical or subcritical phases), Burnett expansion method, x1 = 0.832	144.503 ± 2.9
474.98 K, 4786.8 kPa, Fluid (supercritical or subcritical phases), Burnett expansion method, x1 = 0.832	274.877 ± 5.5
474.98 K, 5920.1 kPa, Fluid (supercritical or subcritical phases), Burnett expansion method, x1 = 0.832	522.524 ± 11
474.98 K, 13635 kPa, Fluid (supercritical or subcritical phases), Burnett expansion method, x1 = 0.832	993.788 ± 20
474.99 K, 590.67 kPa, Fluid (supercritical or subcritical phases), Burnett expansion method, x1 = 0.832	20.1833 ± 0.4
474.99 K, 1081.5 kPa, Fluid (supercritical or subcritical phases), Burnett expansion method, x1 = 0.832	38.4124 ± 0.77
474.99 K, 1126.1 kPa, Fluid (supercritical or subcritical phases), Burnett expansion method, x1 = 0.832	39.9341 ± 0.8
474.99 K, 1933.1 kPa, Fluid (supercritical or subcritical phases), Burnett expansion method, x1 = 0.832	73.0924 ± 1.5
474.99 K, 3211.7 kPa, Fluid (supercritical or subcritical phases), Burnett expansion method, x1 = 0.832	139.089 ± 2.8
474.99 K, 4708.1 kPa, Fluid (supercritical or subcritical phases), Burnett expansion method, x1 = 0.832	264.786 ± 5.4
475 K, 5875.1 kPa, Fluid (supercritical or subcritical phases), Burnett expansion method, x1 = 0.832	503.942 ± 11
475 K, 5905.8 kPa, Fluid (supercritical or subcritical phases), Burnett expansion method, x1 = 0.832	518.038 ± 11
475 K, 12413 kPa, Fluid (supercritical or subcritical phases), Burnett expansion method, x1 = 0.832	958.868 ± 19
475.01 K, 13484 kPa, Fluid (supercritical or subcritical phases), Burnett expansion method, x1 = 0.832	988.822 ± 20

— the NIST ThermoML archive (doi:10.1021/je0301040)
